This assay relates to transcription regulatory region for a human-derived Type I collagen α2 chain gene. The experiment in a line: TGF-β-promoted transcription of a Type I collagen gene, COL-Luc luciferase reporter assay. To be noted: normal human fetal skin fibroblast transfected with COL-Luc, TGF-β added, 40 hours, read-out: Inhibition percentage of the ability of TGF-β to promote transcription of a Type I collagen gene; for inhibition at 3 µM: compound final concentration 3 μM; for inhibition at 10 µM: compound final concentration 10 μM; for inhibition at 1 µM: compound final concentration 1 μM. The format is cell-based. As to the method:
1×10^8 cells of a normal human fetal skin fibroblast (Clontech, catalogue No. CC-2509) were cultured at 37° C. overnight under 5% CO2 atmosphere. After the cultured cells were washed with a sodium phosphate buffer (hereinafter, referred to as PBS) twice, 3 ml of PBS was added thereto and the cells were scraped away the wall of a vessel using a cell scraper (Nalgen, catalogue No. 179693). The scraped cells were collected by centrifugation (1,500 rpm, 4° C., 15 min), and these were suspended in 20 ml of PBS and centrifuged again. To the resulting precipitates were added 11 ml of Solution 2 and 4.8 μl of pronase of DNA Extraction Kit (Stratagene, catalogue No. 200600). After shaken at 60° C. for 1 hour, the resulting mixture was allowed to stand in ice for 10 minutes. Then, 4 ml of Solution 3 of the kit was added to the mixture. After mixed, the mixture was allowed to stand in ice for 5 minutes and then centrifuged (3,000 rpm, 4° C., 15 min) to recover a supernatant. To the recovered supernatant was added 2 μl of RNase per 1 ml of the supernatant and the mixture was allowed to stand at 37° C. for 15 minutes. To the mixture was added 2-fold volume of ethanol. After mixed, a white thread-like substance (genomic DNA) appeared and the substance was recovered. The recovered genomic DNA was washed with 70% ethanol and then air-dried. The air-dried genomic DNA was dissolved in 500 μl of 10 mM Tris-HCl, 1 mM EDTA (pH 8.0) (hereinafter, referred to as TE).
The resulting genomic DNA-dissolved solution (genomic DNA 1 μg corresponding amount) was mixed with each 1 μl of an oligonucleotide consisting of a base sequence represented by SEQ ID No.: 1 (SEQ ID No. 1: an oligonucleotide primer designed to amplify a collagen promoter DNA: ccaagctagc gaaattatct tttctttcat ag 32) and an oligonucleotide ([…]) consisting of a base sequence represented by SEQ ID No.:2 (SEQ ID No. 2: an oligonucleotide primer designed to amplify a collagen promoter DNA: ccaaaagctt gcagtcgtgg ccagtacc 28), 29 μl of distilled water, 5 μl of a buffer attached to TaKaRa LA Taq (TAKARA SHUZO Co., Ltd., catalogue No. RR002A), 5 μl of a Mg^2+ solution, 5 μl of a dNTP mixture and 0.5 μl of TaKaRa LA Taq (TAKARA SHUZO Co., Ltd., catalogue No. RR002A). After the resulting mixed solution was incubated at 94° C. for 5 minutes, the mixed solution was subjected to 30 cycles, in which one cycle consists of incubation at 94° C. for 1 minute, at 60° C. for 1 minute and then at 72° C. for 1 minute. The mixed solution was electrophoresed on a 2% agarose gel to recover about 0.5 kb of a DNA. The recovered DNA was treated with phenol/chloroform and then precipitated with ethanol to recover the DNA. The resulting DNA was dissolved in ultrapure water. To this solution were added 2.5 μl of NheI and 2.5 μl of HindIII, and then incubated at 37° C. for 3 hours. Then, the solution was electrophoresed on a 2% agarose gel to recover about 3.5 kb of a DNA. The recovered DNA was precipitated with ethanol to recover again the DNA (hereinafter, referred to as the collagen promoter DNA).
On the other hand, the vector pGL3 (Promega, catalogue No. E1751) having the nucleotide sequence encoding firefly luciferase was digested with NheI and HindIII, and then subjected to agarose gel electrophoresis as described above to recover about 5 kb of a DNA. The recovered DNA was precipitated with ethanol to recover the DNA again. To the recovered DNA were added 44 μl of distilled water, 5 μl of Buffer attached to Alkaline Phosphatase (TAKARA SHUZO, catalogue No. 2120A) and 1 μl of Alkaline Phosphatase (TAKARA SHUZO, catalogue No. 2120A). The mixed solution was incubated at 65° C. for 30 minutes. Then, the mixed solution was treated with phenol/chloroform twice, and precipitated with ethanol to recover the DNA (hereinafter referred to as the Luc vector DNA). […]
For orientation: Reporter assays use an easily measured gene product as a stand-in for the process of interest.

A word on the inhibition: it is the share of the control response that was lost under treatment. On to `COCC(=O)Nc1cccc(C=CC(=O)c2c(O)c3cccnc3n(C)c2=O)c1` [(19a), 4-hydroxy-1-methyl-3-[3-[3-(methoxyacetylamino)phenyl]acryloyl]-1H-[1,8]naphthyridin-2-one], for which the inhibition at 3 µM was at least 70%. In the case of `COC(=O)COc1cccc(C=CC(=O)C2=C(O)c3ccccc3S(=O)(=O)N2C)c1` [(1b), 4-hydroxy-3-[3-[3-[(methoxycarbonyl)methoxy]phenyl]acryloyl]-2-methyl-2H-1,2-benzothiazine-1,1-dioxide], the inhibition at 3 µM was at least 70%.

Take `COC(=O)COc1cccc(C=CC(=O)c2ccc(C)[nH]c2=O)c1` [(11c), 3-[3-[3-[(methoxycarbonyl)methoxy]phenyl]-1-oxo-2-propenyl]-6-methyl-2(1H)-pyridinone]: the inhibition at 10 µM was at least 70%.

On to `COCCOC(=O)Nc1cccc(C=CC(=O)c2c(O)c3cccnc3n(C)c2=O)c1` [(42a), 4-hydroxy-1-methyl-3-[3-[3-[(2-methoxyethoxy)carbonylamino]phenyl]acryloyl]-1H-[1,8]naphthyridin-2-one], for which the inhibition at 3 µM is at least 70%.

On to `COCC(=O)Nc1ccc(C=CC(=O)c2c(O)c3cccnc3n(C)c2=O)cc1` [(20a), 4-hydroxy-1-methyl-3-[3-[4-(methoxyacetylamino)phenyl]acryloyl]-1H-[1,8]naphthyridin-2-one], for which the inhibition at 10 µM is at least 70%. In the case of `COCCNC(=O)c1cccc(/C=C/C(=O)c2c(O)c3cccnc3n(C)c2=O)n1` [(124a), 4-hydroxy-1-methyl-3-[3-[6-(2-methoxyethyl)aminocarbonyl-2-pyridinyl]acryloyl]-1H-[1,8]naphthyridin-2-one], the inhibition at 10 µM is at least 70%. In the case of `COCCNC(=O)c1cccc(C=CC(=O)c2c(O)c3cccnc3[nH]c2=O)c1` [(31a), 4-hydroxy-3-[3-[3-[(2-methoxyethyl)aminocarbonyl]phenyl}acryloyl]-1H-[1,8]naphthyridin-2-one], the inhibition at 3 µM is at least 70%.

For `COC(=O)CNC(=O)c1cccc(C=CC(=O)C2=C(O)c3ccccc3S(=O)(=O)N2C)c1` [(13b), 4-hydroxy-3-[3-[3-[[(methoxycarbonylmethyl)amino]carbonyl]phenyl}acryloyl]-2-methyl-2H-1,2-benzothiazine-1,1-dioxide], the inhibition at 3 µM was at least 70%. In the case of `COC(=O)CNC(=O)c1cccc(C=CC(=O)c2c(O)c3cccnc3n(C)c2=O)c1` [(29a), 4-hydroxy-1-methyl-3-[3-[3-[[(methoxycarbonylmethyl)amino]carbonyl]phenyl}acryloyl]-1H-[1,8]naphthyridin-2-one], the inhibition at 3 µM was at least 70%.

In the case of `Cc1ccc(C(=O)/C=C/c2cccc(OCCO)c2)c(=O)[nH]1` [(16c), 3-[3-[3-(2-hydroxyethoxy)phenyl]-1-oxo-2-propenyl]-6-methyl-2(1H)-pyridinone], the inhibition at 10 µM is at least 70%. For the molecule `COCCNC(=O)c1cccc(C=CC(=O)c2c(O)c3cccnc3n(C)c2=O)c1` [(32a), 4-hydroxy-1-methyl-3-[3-[3-[(2-methoxyethyl)aminocarbonyl]phenyl}acryloyl]-1H-[1,8]naphthyridin-2-one], the inhibition at 3 µM was at least 70%. Turning to `COCCNC(=O)c1cccc(C=CC(=O)C2=C(O)c3ccccc3S(=O)(=O)N2C)c1` [(10b), 4-hydroxy-3-[3-[3-[(2-methoxyethyl)aminocarbonyl]phenyl}acryloyl]-2-methyl-2H-1,2-benzothiazine-1,1-dioxide], the inhibition at 3 µM is at least 70%. Same read-out and setting: the figure for `COCCNC(=O)c1cccc(C=CC(=O)c2cn(C)c3ccccc3c2=O)c1` [(24c), 3-[3-[3-[(2-methoxyethyl)aminocarbonyl]phenyl}acryloyl]-1-methyl-4(1H)-quinolinone] is at least 70%; for `COC(=O)COc1cccc(C=CC(=O)c2c(O)c3cccnc3n(C)c2=O)c1` [(36a), 4-hydroxy-1-methyl-3-[3-[3-[(methoxycarbonyl)methoxy]phenyl]acryloyl]-1H-[1,8]naphthyridin-2-one] it is at least 70%. For the molecule `COCCNC(=O)c1cccc(C=CC(=O)c2c[nH]c3ccccc3c2=O)c1` [(23c), 3-[3-[3-[(2-methoxyethyl)aminocarbonyl]phenyl}acryloyl]-4(1H)-quinolinone], the inhibition at 1 µM was at least 70%.

In the case of `Cn1c(=O)c(C(=O)C=Cc2cccc(OCCO)c2)c(O)c2cccnc21` [(40a), 4-hydroxy-1-methyl-3-[3-[3-(2-hydroxyethoxy)phenyl]acryloyl]-1H-[1,8]naphthyridin-2-one], the inhibition at 3 µM was at least 70%. Regarding `CN1C(C(=O)C=Cc2cccc(OCCO)c2)=C(O)c2ccccc2S1(=O)=O` [(16b), 4-hydroxy-3-[3-[3-(2-hydroxyethoxy)phenyl]acryloyl]-2-methyl-2H-1,2-benzothiazine-1,1-dioxide], the inhibition at 1 µM was at least 70%. As for `CN(C)CCOc1cccc(C=CC(=O)c2c(O)c3cccnc3n(C)c2=O)c1` [(56a), 4-hydroxy-1-methyl-3-[3-[3-(2-dimethylaminoethoxy)phenyl]acryloyl]-1H-[1,8]naphthyridin-2-one], the inhibition at 10 µM was at least 70%. In the case of `COCC(=O)Nc1cccc(C=CC(=O)C2=C(O)c3ccccc3S(=O)(=O)N2C)c1` [(5b), 4-hydroxy-3-[3-[3-(methoxyacetylamino)phenyl]acryloyl]-2-methyl-2H-1,2-benzothiazine-1,1-dioxide], the inhibition at 1 µM was at least 70%.
